# Source: US8119633B2, “Substituted sulfonamide compounds” (Gruenenthal GmbH, priority 2007, dated 2012)
# What was measured:
# [1] = target: T1, bradykinin receptor 1 (B1R) of the rat (Rattus norvegicus, UniProt P97583); assay: Functional study on the bradykinin receptor 1 (B1R), rat: FLIPR Ca2+ influx assay; assay type: cell-based; settings: test substance 10 μM, CHO K1 cells transfected with rat B1R, Des-Arg9-bradykinin at EC80, Ca2+ influx (Fluo-4, FLIPR); for inhibition at 10 µM: read-out: B1R antagonism, rat [10 μM] % inhibition
# T1 construct: expressed in transfected cells; host or cells: CHO K1 cells
# T1 sequence (P97583 1-337): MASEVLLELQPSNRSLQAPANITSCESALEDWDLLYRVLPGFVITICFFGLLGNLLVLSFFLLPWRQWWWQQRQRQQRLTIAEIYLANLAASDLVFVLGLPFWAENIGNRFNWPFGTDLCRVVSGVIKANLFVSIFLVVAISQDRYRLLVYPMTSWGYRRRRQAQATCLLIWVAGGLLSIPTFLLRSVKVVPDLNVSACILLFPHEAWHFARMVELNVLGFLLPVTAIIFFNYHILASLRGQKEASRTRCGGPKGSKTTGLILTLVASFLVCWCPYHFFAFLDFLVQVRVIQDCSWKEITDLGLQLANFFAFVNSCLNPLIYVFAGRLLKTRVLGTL
# Summary of the method: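 CHO K1 cells stably expressing rat B1R, Fluo-4-loaded, read on FLIPR (ex 488/em 540 nm, peak fluorescence). Test substances added first (agonism vs 10 μM Des-Arg9-bradykinin), then after 10-20 min Des-Arg9-bradykinin at EC80; % inhibition and IC50 from concentration series, n=2-3, N≥2.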
# [2] = target: T2, human bradykinin receptor 1 (B1R) (Homo sapiens, UniProt P46663); assay: Functional study on the bradykinin receptor 1 (B1R), human: FLIPR Ca2+ influx assay; assay type: cell-based; settings: test substance 10 μM, CHO K1 cells transfected with human B1R, Lys-Des-Arg9-bradykinin at EC80, Ca2+ influx (Fluo-4, FLIPR); for inhibition at 10 µM: read-out: B1R antagonism, human [10 μM] % inhibition
# T2 construct: expressed in transfected cells; host or cells: CHO K1 cells
# T2 sequence (P46663 1-353): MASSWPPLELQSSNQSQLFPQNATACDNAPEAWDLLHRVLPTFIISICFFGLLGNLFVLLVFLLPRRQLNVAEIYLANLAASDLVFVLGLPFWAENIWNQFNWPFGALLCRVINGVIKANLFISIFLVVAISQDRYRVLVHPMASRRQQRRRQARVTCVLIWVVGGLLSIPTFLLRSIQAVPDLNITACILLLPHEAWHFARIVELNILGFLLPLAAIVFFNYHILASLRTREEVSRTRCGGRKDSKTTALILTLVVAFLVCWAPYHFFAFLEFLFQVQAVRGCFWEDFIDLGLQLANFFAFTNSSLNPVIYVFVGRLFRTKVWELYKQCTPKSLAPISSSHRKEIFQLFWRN
# Summary of the method: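 CHO K1 cells stably expressing human B1R were loaded with Fluo-4, and Ca2+ fluorescence was read on FLIPR (ex 488/em 540 nm). Compound was added first (10 μM for % activation against Lys-Des-Arg9-bradykinin ≥0.5 nM). After 10-20 min, Lys-Des-Arg9-bradykinin was added at EC80 for % inhibition; IC50 came from concentration series, n=2-3, N≥2.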
# human μ-opiate receptor = target: T3, human μ-opiate receptor (Homo sapiens, UniProt P35372); assay: Affinity for the human μ-opiate receptor ([3H]-naloxone displacement, SPA); settings: test substance 1 μmol/l, inhibition of specific [3H]-naloxone binding, CHO-K1 receptor membrane preparation; for inhibition at 1 µM: read-out: μ-Opioid receptor [1 μM] % inhibition
# T3 construct: purchased PerkinElmer Life Sciences, Zaventem, Belgium RB-HOM; host or cells: CHO-K1 cells (membrane preparation)
# Procedure: Studies of the Effectiveness of the Compounds According to the Invention Method for determining the affinity for the human μ-opiate receptor
# The receptor affinity for the human μ-opiate receptor is determined in a homogeneous batch on microtitre plates. To this end, serial dilutions of the substances to be tested are incubated for 90 minutes at room temperature with a receptor membrane preparation (15-40 μg of protein/250 μl of incubation batch) of CHO-K1 cells, which express the human μ-opiate receptor (RB-HOM receptor membrane preparation from PerkinElmer Life Sciences, Zaventem, Belgium), in the presence of 1 nmol/l of the radioactive ligand [^3H]-naloxone (NET719, PerkinElmer Life Sciences, Zaventem, Belgium) and 1 mg of WGA-SPA beads (wheatgerm agglutinin SPA beads from Amersham/Pharmacia, Freiburg, Germany) in a total volume of 250 μl. The incubation buffer used is 50 mmol/l of Tris-HCl supplemented with 0.06 wt. % bovine serum albumin. In order to determine non-specific binding, 100 μmol/l of naloxone is additionally added. When the ninety-minute incubation time has ended, the microtitre plates are centrifuged off for 20 minutes at 1000 g and the radioactivity is measured in a β-counter (Microbeta-Trilux, PerkinElmer Wallac, Freiburg, Germany). The percentage displacement of the radioactive ligand from its binding to the human μ-opiate receptor at a concentration of the test substances of 1 μmol/l is determined and stated as the percentage inhibition of specific binding. On the basis of the percentage displacement by different concentrations of the test substances, IC50 inhibitory concentrations, which effect 50% displacement of the radioactive ligand, are calculated. Ki values for the test substances are obtained by conversion by means of the Cheng-Prusoff equation.
# T3 sequence (P35372 whole entry): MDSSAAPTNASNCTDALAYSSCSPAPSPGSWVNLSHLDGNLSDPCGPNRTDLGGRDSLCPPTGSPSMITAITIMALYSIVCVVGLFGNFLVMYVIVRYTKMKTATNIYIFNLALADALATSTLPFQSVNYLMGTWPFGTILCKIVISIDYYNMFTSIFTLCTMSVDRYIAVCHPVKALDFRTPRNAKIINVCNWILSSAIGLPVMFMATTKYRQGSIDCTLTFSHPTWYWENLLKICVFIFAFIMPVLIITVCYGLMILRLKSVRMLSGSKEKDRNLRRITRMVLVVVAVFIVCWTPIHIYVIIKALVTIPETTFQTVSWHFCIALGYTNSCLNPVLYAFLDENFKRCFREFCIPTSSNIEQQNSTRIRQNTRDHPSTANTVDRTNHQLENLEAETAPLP
Compound,inhibition at 10 µM [1],inhibition at 10 µM [2],inhibition at 1 µM (human μ-opiate receptor),"B1R antagonism, rat [10 μM] % inhibition [1]","B1R antagonism, human [10 μM] % inhibition [2]",μ-Opioid receptor [1 μM] % inhibition (human μ-opiate receptor)
"O=C(CC1C(=O)Nc2ccccc2N1S(=O)(=O)c1ccc(Cl)c(Cl)c1)NCC1CCC(C(c2ccccc2)N2CCCC2)CC1 (stereo not drawn) [Example 67, 2-[1-(3,4-dichloro-benzenesulfonyl)-3-oxo-1,2,3,4-tetrahydro-quinoxalin-2-yl]-N-[4-(phenyl-pyrrolidin-1-yl-methyl)-cyclohexylmethyl]-acetamide]",104%,104%,64%,,,
"O=C(CC1CCCN1S(=O)(=O)c1ccc(Cl)c(Cl)c1)N1CCC(C(Cc2ccccc2)N2CCOCC2)CC1 (stereo not drawn) [Example 81, 2-(1-(3,4-dichlorophenylsulfonyl)pyrrolidin-2-yl)-1-(4-(1-morpholino-2-phenylethyl)piperidin-1-yl)ethanone]",56%,65.3%,16%,,,
"COc1cc(C)c(S(=O)(=O)N(C)CCCNC(=O)NC2CCC(C(c3ccccc3)N3CCCC3)CC2)c(C)c1C (stereo not drawn) [Example 3, 4-Methoxy-2,3,6,N-tetramethyl-N—(3-{3-[4-(phenylpyrrolidin-1-ylmethyl) -cyclohexyl]-ureido}propyl)benzenesulfonamide]",58%,80.8%,71%,,,
"O=C(CC1CCCN1S(=O)(=O)c1ccc(Cl)c(Cl)c1)NC1CCC(C(CCc2ccccc2)N2CCCCC2)CC1 (stereo not drawn) [Example 77, 2-(1-(3,4-dichlorophenylsulfonyl)pyrrolidin-2-yl)-N-(4-(3-phenyl-1-(piperidin-1-yl)propyl)cyclohexyl)acetamide]",1%,102%,35%,,,
"O=C(CC1CCCN1S(=O)(=O)c1ccc(Cl)c(Cl)c1)NCC1CCC(C(c2ccccc2)N2CCCC2)CC1 (stereo not drawn) [Example 76, 2-[1-(3,4-dichloro-benzenesulfonyl)-pyrrolidin-2-yl]-N-[4-(phenyl-pyrrolidin-1-ylmethyl)-cyclohexylmethyl]-acetamide]",9%,80.4%,84%,,,
"O=C(CC1CCCCN1S(=O)(=O)c1ccc(Cl)c(Cl)c1)NC1CCC(C(CCc2ccccc2)N2CCOCC2)CC1 (stereo not drawn) [Example 87, 2-[1-(3,4-dichloro-benzenesulfonyl)-piperidin-2-yl]-N-[4-(1-morpholin-4-yl-3-phenyl-propyl)-cyclohexyl]-acetamide]",25%,96.8%,38%,,,
"O=C(CC1C(=O)NCCN1S(=O)(=O)c1ccc(Cl)cc1Cl)NC1CCC(C(c2ccccc2)N2CCCC2)CC1 (stereo not drawn) [Example 102, 2-(1-(2,4-dichlorophenylsulfonyl)-3-oxopiperazin-2-yl)-N-(4-(phenyl(pyrrolidin-1-yl)methyl)cyclohexyl)acetamide]",12%,104%,35%,,,
"CN1CCN(C(Cc2ccccc2)C2CCN(C(=O)CC3CCCCN3S(=O)(=O)c3cccc(C(F)(F)F)c3)CC2)CC1 (stereo not drawn) [Example 111, 1-(4-(1-(4-methylpiperazin-1-yl)-2-phenylethyl)piperidin-1-yl)-2-(1-(3-(trifluoromethyl)phenylsulfonyl)piperidin-2-yl)ethanone]",61%,94%,-2%,,,
"CN1CCN(C(c2ccccc2)C2CCC(NC(=O)CC3CCCN3S(=O)(=O)c3ccc(Cl)c(Cl)c3)CC2)CC1 (stereo not drawn) [Example 79, 2-[1-(3,4-dichloro-benzenesulfonyl)-pyrrolidin-2-yl]-N-{4-[(4-methyl-piperazin-1-yl)-phenyl-methyl]-cyclohexyl}-acetamide]",33%,96.8%,47%,,,
"CN1CCN(C(Cc2ccccc2)C2CCN(C(=O)CC(NS(=O)(=O)c3ccc4ccccc4c3)c3ccccc3)CC2)CC1 (stereo not drawn) [Example 116, N-(3-(4-(1-(4-methylpiperazin-1-yl)-2-phenylethyl)piperidin-1-yl)-3-oxo-1-phenylpropyl)naphthalene-2-sulfonamide]",93%,102%,7%,,,
"Cc1cc(S(=O)(=O)N2CCCCC2CCC(=O)N2CCC(C(Cc3ccccc3)N3CCN(C)CC3)CC2)c(C)cc1Cl (stereo not drawn) [Example 118, 3-(1-(4-chloro-2,5-dimethylphenylsulfonyl)piperidin-2-yl)-1-(4-(1-(4-methyl-piperazin-1-yl)-2-phenylethyl)piperidin-1-yl)propan-1-one]",93%,101%,3%,,,
"O=C(CC1CCCN1S(=O)(=O)c1ccc(Cl)c(Cl)c1)N1CCC(C(c2ccccc2)N2CCOCC2)CC1 (stereo not drawn) [Example 80, 2-[1-(3,4-dichloro-benzenesulfonyl)-pyrrolidin-2-yl]-1-[4-(morpholin-4-yl-phenylmethyl)-piperidin-1-yl]-ethanone]",15%,16.7%,7%,,,
"O=C(CC1CCCCN1S(=O)(=O)c1ccc(Cl)c(Cl)c1)N1CCC(C(Cc2ccccc2)N2CCOCC2)CC1 (stereo not drawn) [Example 90, 2-(1-(3,4-dichlorophenylsulfonyl)piperidin-2-yl)-1-(4-(1-morpholino-2-phenylethyl)piperidin-1-yl)ethanone]",17%,14.4%,12%,,,
"O=C(CC1CCCCN1S(=O)(=O)c1ccc(Cl)c(Cl)c1)NC1CCC(C(c2ccccc2)N2CCOCC2)CC1 (stereo not drawn) [Example 106, 2-(1-(3,4-dichlorophenylsulfonyl)piperidin-2-yl)-N-(4-(morpholino(phenyl)methyl)cyclohexyl)acetamide]",19%,48.3%,21%,,,
"CN1CCN(C(c2cccc(F)c2)C2CCN(C(=O)CC(NS(=O)(=O)c3ccc4ccccc4c3)c3ccccc3)CC2)CC1 (stereo not drawn) [Example 110, N-(3-(4-((3-fluorophenyl)(4-methylpiperazin-1-yl)methyl)piperidin-1-yl)-3-oxo-1-phenylpropyl)naphthalene-2-sulfonamide]",100%,102%,3%,,,
"4-(Dimethylaminophenylmethyl)piperidin-1-carboxylic acid {3-[(4-methoxy-2,3,6-trimethylbenzenesulfonyl)methylamino]propyl}amide [Example 4]",,,,95%,54.8%,100%
